# From publication PMC10106456 (Communications Biology, 2023)
# Where “and” joins values, the source holds several entries; their conditions need not be identical. Equal entries are not always repeated. Where two headings read alike, the source gives them in different places.
# Experiments:
# [1] = test system: E. coli DH5αZ1 + pZE24-tet(X7); experiment: Microbroth dilution antibiotic susceptibility test (MIC); assay type: cell-based; details: Escherichia coli, 20 h
# Procedure: (§1) For high expression, 1 mM IPTG fully relieves repression by LacI[44] thus only IPTG was used in whole-cell tests. Chemically-competent E. coli DH5αZ1 (Expressys) was transformed with these pZE24 constructs by heat shock. Minimum inhibitory concentrations (MICs) were measured as per Clinical and Laboratory Standards Institute (CLSI) guidelines. Substrates and inhibitors were dissolved in DMSO (20 mg/mL) then diluted to working concentrations in cation-adjusted Mueller-Hinton II broth supplemented with 50 μg/mL kanamycin (Supplementary Data 2). Antibiotic susceptibility testing panels were prepared in 96-well flat-bottom microplates (Corning) by two-fold serial dilution of the antibiotic of interest (Supplementary Data 3). […] Liquid cultures of each strain were grown to exponential phase then diluted to a standard concentration (OD600 = 0.0015, which is equivalent to double ~5 × 10^5 CFU/mL) and inoculated into each panel at a 1:1 ratio. […] Each strain-antibiotic/inhibitor combination was tested in triplicate, along with no-drug and no-cell controls. Inoculated panels were sealed with Breathe-Easy membranes (Sigma-Aldrich) and incubated at 37 °C for 20 h. MICs were scored by absorbance measurements at 600 nm (OD600) using the Synergy H1 microplate reader (Biotek Instruments, Inc).
# [2] = test system: E. coli DH5αZ1 + pZE24 (empty); experiment: as above; assay type: cell-based; details: Escherichia coli, 20 h, drug alone
# Procedure: as §1
# [3] = test system: E. coli DH5αZ1 + pZE24-tet(X6); experiment: as above; assay type: cell-based; details: Escherichia coli
# Procedure: as §1
# [4] = target: Tet(X6) (Proteus genomosp. 6, UniProt A0A6I7DAX3); details: for Sigmoidal curve fit, best-fit Kprime / Sigmoidal curve fit, best-fit Vmax / Sigmoidal curve fit, best-fit h / Sigmoidal curve fit, best-fit Khalf: allosteric sigmoidal model, Supplementary Data 1; for Sigmoidal curve fit, best-fit Khalf: [Sub] in μM; for Michaelis-menten nonlinear fit, best-fit Kcat / Michaelis-menten nonlinear fit, best-fit Vmax: supplementary source data; for Michaelis-menten nonlinear fit, best-fit Vmax: Tet(X6) 0.4 µM
# Chain of Tet(X6) (A0A6I7DAX3 entry or part of it): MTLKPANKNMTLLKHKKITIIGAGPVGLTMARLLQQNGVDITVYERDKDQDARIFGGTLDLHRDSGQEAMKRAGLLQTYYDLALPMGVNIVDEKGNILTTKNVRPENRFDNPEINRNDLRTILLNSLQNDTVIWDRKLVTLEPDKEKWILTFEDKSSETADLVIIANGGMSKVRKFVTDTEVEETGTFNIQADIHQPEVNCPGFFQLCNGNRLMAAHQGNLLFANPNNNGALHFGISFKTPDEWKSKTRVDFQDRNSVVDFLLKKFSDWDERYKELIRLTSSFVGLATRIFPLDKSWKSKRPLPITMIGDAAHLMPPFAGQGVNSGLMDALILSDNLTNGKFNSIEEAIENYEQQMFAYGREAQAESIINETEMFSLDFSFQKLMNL
# Procedure: All experiments were prepared open to air in non-degassed buffer solutions at room temperature. […] Initial enzyme velocities were determined by linear regression using Agilent Cary WinUV Software over the linear range of the reaction (typically between 0 to 1 min), plotted against the concentration of the substrate, and fitted to the Michaelis–Menten or allosteric sigmoidal nonlinear regression equations using GraphPad Prism 6.
# [5] = test system: Tet(X2); details: surface-localized single point mutation; cited from earlier work
# [6] = test system: CN(C)[C@@H]1C(O)=C(C(N)=O)C(=O)[C@@]2(O)C(O)=C3C(=O)c4c(O)c(NC(=O)CN5CCCC5)cc(F)c4C[C@H]3C[C@@H]12; experiment: purified protein, by the assay type; details: pH 8.5
# [7] = test system: CN(C)c1cc(NC(=O)CNC(C)(C)C)c(O)c2c1C[C@H]1C[C@H]3[C@H](N(C)C)C(O)=C(C(N)=O)C(=O)[C@@]3(O)C(O)=C1C2=O; experiment: purified protein, by the assay type; details: pH 8.5
# [8] = test system: CN(C)[C@@H]1C(O)=C(C(N)=O)C(=O)[C@@]2(O)C(O)=C3C(=O)c4c(O)cccc4[C@@](C)(O)[C@H]3C[C@@H]12; experiment: purified protein, by the assay type; details: other: compound as substrate of Tet(X6), Michaelis-Menten fit, pH 8.5
# [9] = test system: [H][C@@]12Cc3c(N(C)C)cc(CNCC(C)(C)C)c(O)c3C(=O)C1=C(O)[C@]1(O)C(=O)C(C(N)=O)=C(O)[C@@H](N(C)C)[C@]1([H])C2; experiment: purified protein, by the assay type; details: pH 8.5
# [10] = test system: Cc1c2c(c(O)c3c(O)cccc13)C(=O)[C@]1(O)C(=O)C(C(N)=O)=C(O)[C@@H](N(C)C)[C@@H]1C2; experiment: purified protein, by the assay type; details: other: compound as substrate of Tet(X6), Michaelis-Menten fit, pH 8.5
# [11] = [Sub] 3.8961 μM, trials 1-3, absorbance 400 nm (440 nm for aTC)
# [12] = [Sub] 6.16883 μM, trials 1-3, absorbance 400 nm (440 nm for aTC)
# [13] = [Sub] 8.11688 μM, trials 1-3, absorbance 400 nm (440 nm for aTC)
# [14] = [Sub] 10.0649 μM, trials 1-3, absorbance 400 nm
# [15] = [Sub] 29.8701 μM, trials 1-3, absorbance 400 nm (440 nm for aTC)
# [16] = [Sub] 1.96581 μM, trials 1-3, absorbance 400 nm
# [17] = [Sub] 3.93162 μM, trials 1-3, absorbance 400 nm
# [18] = [Sub] 5.89744 μM, trials 1-3, absorbance 400 nm
# [19] = [Sub] 7.86325 μM, trials 1-3, absorbance 400 nm
# [20] = [Sub] 9.82906 μM, trials 1-3, absorbance 400 nm
# [21] = [Sub] 20.641 μM, trials 1-3, absorbance 400 nm
# [22] = [Sub] 30.4701 μM, trials 1-3, absorbance 400 nm
# [23] = other: compound as substrate of Tet(X6), Michaelis-Menten fit
# [24] = other: supplementary source data, [Sub] in μM
compound,measurement,setting,value
"CN(C)[C@@H]1C(O)=C(C(N)=O)C(=O)[C@@]2(O)C(O)=C3C(=O)c4c(O)ccc(Cl)c4[C@@](C)(O)[C@H]3C[C@@H]12 [CTC, chlortetracycline]",MIC,[1],32 µg/mL
same,MIC,[2],2 µg/mL
same,MIC,[3],128 µg/mL
"C[C@H]1c2cccc(O)c2C(=O)C2=C(O)[C@]3(O)C(=O)C(C(N)=O)=C(O)[C@@H](N(C)C)[C@@H]3[C@@H](O)[C@@H]21 [DOX, doxycycline]",MIC,[1],16 µg/mL
same,MIC,[2],1 µg/mL
same,MIC,[3]; 20 h,32 µg/mL
"CN(C)[C@@H]1C(O)=C(C(N)=O)C(=O)[C@@]2(O)C(O)=C3C(=O)c4c(O)c(NC(=O)CN5CCCC5)cc(F)c4C[C@H]3C[C@@H]12 [ERA, eravacycline]",Slope (initial velocity of substrate degradation),[4]; [11],0.0062 and 0.0046 and 0.0039
same,Slope (initial velocity of substrate degradation),[4]; [12],0.0169 and 0.0106 and 0.0133
same,Slope (initial velocity of substrate degradation),[4]; [13],0.0312 and 0.0317 and 0.0293
same,Slope (initial velocity of substrate degradation),[4]; [14],0.0442 and 0.0406 and 0.047
same,Slope (initial velocity of substrate degradation),"[4]; [Sub] 20.1299 μM, trials 1-3, absorbance 400 nm (440 nm for aTC)",0.0511 and 0.0571 and 0.0722
same,Slope (initial velocity of substrate degradation),[4]; [15],0.0798 and 0.0764 and 0.0969
same,Slope (initial velocity of substrate degradation),"[4]; [Sub] 64.9351 μM, trials 1-2, absorbance 400 nm",0.1162 and 0.1096
same,"Sigmoidal curve fit, best-fit Kprime",[4],84.21
same,"Sigmoidal curve fit, best-fit Vmax",[4],0.1315
same,"Sigmoidal curve fit, best-fit h",[4],1.474
same,"Sigmoidal curve fit, best-fit Khalf",[4],20.22
same,"Michaelis-menten nonlinear fit, best-fit Kcat",[4],0.5027
same,"Michaelis-menten nonlinear fit, best-fit Vmax",[4],0.2011
same,MIC,[1],4 µg/mL
same,MIC,[2],0.25 µg/mL
same,MIC,[3]; 20 h,8 µg/mL
"CN(C)c1cc(CNCC(C)(C)C)c(O)c2c1C[C@H]1C[C@H]3[C@H](N(C)C)C(O)=C(C(N)=O)C(=O)[C@@]3(O)C(O)=C1C2=O [OMA, omadacycline]",Slope (initial velocity of substrate degradation),"[4]; [Sub] 1.94805 μM, trials 1-3, absorbance 400 nm (440 nm for aTC)",0.0061 and 0.0058 and 0.0045
same,Slope (initial velocity of substrate degradation),[4]; [11],0.0076
same,Slope (initial velocity of substrate degradation),[4]; [12],0.0203 and 0.0178 and 0.0171
same,Slope (initial velocity of substrate degradation),[4]; [13],0.0286 and 0.0269 and 0.0241
same,Slope (initial velocity of substrate degradation),[4]; [14],0.0336 and 0.0293 and 0.0307
same,Slope (initial velocity of substrate degradation),[4]; [15],0.0474 and 0.044 and 0.0515
same,"Sigmoidal curve fit, best-fit Kprime",[4],61.85
same,"Sigmoidal curve fit, best-fit Vmax",[4],0.05144
same,"Sigmoidal curve fit, best-fit h",[4],1.97
same,"Sigmoidal curve fit, best-fit Khalf",[4],8.114
same,"Michaelis-menten nonlinear fit, best-fit Kcat",[4],0.1969
same,"Michaelis-menten nonlinear fit, best-fit Vmax",[4],0.07875
same,MIC,[1],16 µg/mL
same,MIC,[2],2 µg/mL
same,MIC,[3]; 20 h,64 µg/mL
"CN(C)[C@@H]1C(O)=C(C(N)=O)C(=O)[C@@]2(O)C(O)=C3C(=O)c4c(O)cccc4[C@@](C)(O)[C@H]3C[C@@H]12 [TET, tetracycline]",Slope (initial velocity of substrate degradation),[4]; [16],0.0375 and 0.04014 and 0.02364
same,Slope (initial velocity of substrate degradation),[4]; [17],0.04215 and 0.04584 and 0.0387
same,Slope (initial velocity of substrate degradation),[4]; [18],0.05933 and 0.04704 and 0.05922
same,Slope (initial velocity of substrate degradation),[4]; [19],0.06246 and 0.0528 and 0.05754
same,Slope (initial velocity of substrate degradation),[4]; [20],0.05855 and 0.06072 and 0.05694
same,Slope (initial velocity of substrate degradation),[4]; [21],0.07878 and 0.08328 and 0.07938
same,Slope (initial velocity of substrate degradation),[4]; [22],0.0879 and 0.09378 and 0.09744
same,"Michaelis-menten nonlinear fit, best-fit Kcat",[4],0.2636
same,"Michaelis-menten nonlinear fit, best-fit Vmax",[4],0.1054 and 0.1047
same,MIC,[1],32 µg/mL
same,MIC,[2],1 µg/mL
"CN(C)c1cc(NC(=O)CNC(C)(C)C)c(O)c2c1C[C@H]1C[C@H]3[C@H](N(C)C)C(O)=C(C(N)=O)C(=O)[C@@]3(O)C(O)=C1C2=O [TIG, tigecycline]",Slope (initial velocity of substrate degradation),[4]; [16],0.00897 and 0.01087 and 0.008562
same,Slope (initial velocity of substrate degradation),[4]; [17],0.01529 and 0.0186 and 0.0147
same,Slope (initial velocity of substrate degradation),[4]; [18],0.02792 and 0.01914 and 0.0183
same,Slope (initial velocity of substrate degradation),[4]; [19],0.03155 and 0.02526 and 0.02718
same,Slope (initial velocity of substrate degradation),[4]; [20],0.02741 and 0.02394 and 0.02598
same,Slope (initial velocity of substrate degradation),[4]; [21],0.03075 and 0.05034 and 0.0363
same,Slope (initial velocity of substrate degradation),[4]; [22],0.05374 and 0.04632 and 0.03822
same,"Michaelis-menten nonlinear fit, best-fit Kcat",[4],0.1574
same,"Michaelis-menten nonlinear fit, best-fit Vmax",[4],0.06296 and 0.06154
same,MIC,[1],2 µg/mL
same,MIC,[2],0.5 µg/mL
same,MIC,[3]; 20 h,4 µg/mL
CN(C)c1ccc(O)c2c1C[C@H]1C[C@H]3[C@H](N(C)C)C(O)=C(C(N)=O)C(=O)[C@@]3(O)C(O)=C1C2=O [minocycline],reduction of apparent Km by point mutation Thr280Ala in Tet(X2),[5],two-fold
Tet(X6) (Proteus columbae),Km,[6]; [23],47 µM
same,kcat,[6]; [23],0.0083 ± 0.0017 s⁻¹
same,kcat/Km,[6]; [23],183 ± 67 M⁻¹ s⁻¹
same,Km,[6]; [24],46.6 µM
same,Km,[7]; [23],12 µM
same,kcat,[7]; [23],0.00267 ± 0.00033 s⁻¹
same,kcat/Km,[7]; [23],217 ± 67 M⁻¹ s⁻¹
same,Km,[7]; [24],11.8 µM and 11.1 µM
same,kcat,[8],0.00433 ± 0.00017 s⁻¹
same,Km,[9]; [23],18 µM
same,kcat,[9]; [23],0.00333 ± 0.00033 s⁻¹
same,kcat/Km,[9]; [23],183 ± 50 M⁻¹ s⁻¹
same,Km,[9]; [24],18.4 µM
same,Km,[10],6 µM
same,kcat/Km,[10],200 ± 50 M⁻¹ s⁻¹
